From a melting point compilation (Tetko et al.)

First: CCCCNc1ccc(N2CCOCC2)cc1
Second: O=Cc1ccc(N2CCOCC2)c(F)c1
The melting point of the first is lower: 59 to 61 °C for the first, 68 to 70 °C for the second.

First: O=C(O)Cc1cnc2ccccc2c1
Second: NC(=O)c1cc(C(=O)O)nn1-c1ccccc1
The melting point of the first is lower: 201 to 203 °C for the first, 269 to 271 °C for the second.

First: O=S(=O)(Cl)c1csc(-c2ccc(F)cc2)n1
Second: O=Cc1c[nH]nc1-c1ccc(Cl)cc1
The melting point of the first is lower: 75 to 77 °C for the first, 139 to 141 °C for the second.

First: O=C(O)c1ccnc(Cl)c1[N+](=O)[O-]
Second: NC(=O)c1ccc(CCl)c([N+](=O)[O-])c1
The melting point of the first is higher: 222 to 224 °C for the first, 115 to 117 °C for the second.

First: O=Cc1ccc(Br)c2cccnc12
Second: Clc1c[nH]c2ccccc12
The melting point of the first is higher: 119 to 121 °C for the first, 79 to 81 °C for the second.

First: Clc1ccc(-n2cccn2)nn1
Second: Clc1cc2nncn2cn1
The melting point of the first is higher: 142 to 144 °C for the first, 111 to 113 °C for the second.

Compared with O=C1NC(=O)N(c2ccc3c(c2)OCO3)C1=O, O=[N+]([O-])c1cc2c(cc1S(=O)(=O)Cl)OCCCO2 is lower in melting point: 195 to 197 °C for the first, 125 to 127 °C for the second.

Compared with CC(C)(O)CN1CCNCC1, CC(Cl)C(=O)N1CCNC1=O (stereo not drawn) is higher in melting point: 61 to 63 °C for the first, 116 to 120 °C for the second.

First: Clc1nc(-c2cccnc2)nc2sc3c(c12)CCC3
Second: O=C(O)c1cnc2c(cnn2Cc2cccnc2)c1
The melting point of the first is lower: 145 to 147 °C for the first, 248 to 250 °C for the second.

First: C#CCOc1ccc(NC)cc1
Second: CNCC(O)COc1ccc([N+](=O)[O-])cc1 (stereo not drawn)
The melting point of the first is lower: 46 to 48 °C for the first, 142 to 144 °C for the second.

Compared with COc1ccc2nc(Cl)c(C)cc2c1, CCc1sc(N)nc1-c1ccc(OC)cc1 is higher in melting point: 92 to 94 °C for the first, 112 to 114 °C for the second.

Compared with c1ccc(C2CNCCS2)cc1 (stereo not drawn), O=C(O)C1(c2ccccc2)CCOCC1 is higher in melting point: 60 to 62 °C for the first, 128 to 130 °C for the second.

Compared with Nc1ncc(Cc2ccc(F)c(F)c2F)s1, NCc1cnc(-c2ccc(C(F)(F)F)cc2)s1 is lower in melting point: 105 to 107 °C for the first, 73 to 75 °C for the second.

First: CC(=O)c1csc(C(=O)CCl)c1
Second: CCc1ccc(C(=O)O)cc1C#N
The melting point of the first is lower: 124 to 126 °C for the first, 141 to 143 °C for the second.

Compared with Nc1nc(-c2cccc(C(F)(F)F)c2)n[nH]1, Fc1cccc(Nc2nnc(S)s2)c1 is lower in melting point: 221 to 223 °C for the first, 206 to 208 °C for the second.

First: O=C(O)C(Oc1cccc(F)c1)c1ccccc1 (stereo not drawn)
Second: Cc1ccc(C(=O)O)cc1NC(=O)c1ccccc1F
The melting point of the first is lower: 108 to 110 °C for the first, 268 to 270 °C for the second.

First: CNc1nc(CC(C)=O)ns1
Second: COC(=O)c1noc(C)c1C(C)=O
The melting point of the first is higher: 298 to 300 °C for the first, 36 to 38 °C for the second.

Compared with Cc1cc(Cl)cc(N)c1I, COC(=O)c1ccc(Cl)c(N)c1 is higher in melting point: 48 to 50 °C for the first, 81 to 83 °C for the second.

First: COc1cc(SC#N)ccc1O
Second: COc1ccc(C(=O)CSc2nc(C)n[nH]2)cc1Br
The melting point of the first is lower: 78 to 80 °C for the first, 158 to 160 °C for the second.

Compared with COc1ccc(CCC(=O)Nc2ccccc2C(=O)O)cc1, COC(=O)c1ccccc1NC(=O)CBr is lower in melting point: 159 to 161 °C for the first, 78 to 80 °C for the second.

First: Cc1noc(-c2ccc(C)c([N+](=O)[O-])c2)n1
Second: Cc1cn2cc(Br)cc(C)c2n1
The melting point of the first is lower: 100 to 102 °C for the first, 109 to 111 °C for the second.

First: NNC(=O)CSc1ccccc1F
Second: NNC(=O)COc1ccccc1F
The melting point of the first is higher: 131 to 133 °C for the first, 109 to 112 °C for the second.

First: OC1CCc2c(Cl)cccc21 (stereo not drawn)
Second: Nc1cccc(C(=O)N2CCCCC2CCO)c1 (stereo not drawn)
The melting point of the first is lower: 69 to 71 °C for the first, 129 to 131 °C for the second.

Compared with COc1cc(C(=O)O)sc1S(N)(=O)=O, Cc1[nH]c(=O)sc1S(=O)(=O)N1CCCC1C(=O)O (stereo not drawn) is lower in melting point: 254 to 256 °C for the first, 247 to 249 °C for the second.

First: COc1ccccc1C(=O)/C=C1\NC(=O)CS1
Second: NC(=O)c1coc2ccccc12
The melting point of the first is higher: 173 to 175 °C for the first, 144 to 146 °C for the second.

First: COc1ccc(Cn2nccc2N)c(OC)c1OC
Second: COc1ccc(-c2[nH]c3ccccc3c2CCC(=O)O)c(OC)c1
The melting point of the first is lower: 71 to 75 °C for the first, 167 to 169 °C for the second.

First: O=S1(=O)CCC(Br)CC1
Second: CN(C)C(=O)N1CCCC(C(=O)O)C1 (stereo not drawn)
The melting point of the first is higher: 127 to 129 °C for the first, 123 to 125 °C for the second.

First: O=C(O)c1ccc(Br)cc1-n1cncn1
Second: O=C(O)c1ccc(-n2cc(Br)cn2)cc1
The melting point of the first is higher: 293 to 295 °C for the first, 273 to 275 °C for the second.

Compared with COc1cccc(C2C(C(=O)O)CC(=O)N2C2CC2)c1 (stereo not drawn), COc1cccc(CNC(N)=O)c1 is lower in melting point: 179 to 181 °C for the first, 111 to 113 °C for the second.

First: Cc1cccc(-c2nc3cc(F)ccc3[nH]2)c1O
Second: O=c1[nH]c(S)nc2ccc(F)cc12
The melting point of the first is lower: 251 to 253 °C for the first, 345 to 347 °C for the second.

First: Nc1cc(Cl)c(NC(=O)c2ccsc2)c(Cl)c1
Second: NC(=O)Cc1cc(Br)c(-c2ccc(N)cc2)s1
The melting point of the first is higher: 206 to 208 °C for the first, 189 to 191 °C for the second.

Compared with N#Cc1cc(Br)ccc1S(=O)(=O)Cl, CS(=O)(=O)CCOc1ccc(Br)cc1 is higher in melting point: 94 to 96 °C for the first, 130 to 132 °C for the second.

First: O=C(O)c1csc(-c2ccoc2)n1
Second: CCc1nc(C(=O)O)nn1-c1ccccc1Cl
The melting point of the first is higher: 166 to 168 °C for the first, 164 to 166 °C for the second.

Compared with CC(C)(C)OC(=O)Nc1ccc(CC#N)cc1, CC(C)C(=O)N(C)Cc1ccc(C(=O)O)cc1 is higher in melting point: 119 to 121 °C for the first, 139 to 141 °C for the second.

Compared with Nc1cc(-c2cccs2)nn1-c1ccccc1, ClCc1nc(Cl)c2cnn(-c3ccccc3)c2n1 is lower in melting point: 121 to 123 °C for the first, 112 to 114 °C for the second.

First: NC1(C(=O)O)CCN(Cc2ccccc2)C1 (stereo not drawn)
Second: Nc1ccccc1C(=O)N1CCCC1
The melting point of the first is higher: 216 to 218 °C for the first, 85 to 89 °C for the second.

First: NS(=O)(=O)Cc1cc(Cl)ccc1F
Second: Nc1cccc(S(=O)(=O)Nc2ccc(Cl)cc2)c1
The melting point of the first is higher: 186 to 188 °C for the first, 127 to 129 °C for the second.

Compared with CC(C)(Oc1ccc(F)cc1)C(=O)O, CNS(=O)(=O)c1ccc(C(=O)O)cc1 is higher in melting point: 68 to 70 °C for the first, 246 to 250 °C for the second.

First: Sc1nnc(COc2ccccc2Cl)o1
Second: COC(=O)c1cccc(OCc2ncon2)c1
The melting point of the first is higher: 135 to 137 °C for the first, 102 to 104 °C for the second.

First: Cc1nc(C2CCCC2)sc1C(=O)O
Second: O=C(O)c1ccncc1N1CCCC1
The melting point of the first is lower: 185 to 187 °C for the first, 259 to 261 °C for the second.

Compared with Cc1noc(C)c1S(N)(=O)=O, O=S(=O)(Cl)c1cnc(Cl)c(Cl)c1 is lower in melting point: 151 to 152 °C for the first, 46 to 48 °C for the second.

First: N#Cc1ccccc1/C=C/C(=O)O
Second: COc1ccc(-c2nn(-c3ccccc3)cc2C=CC(=O)O)cc1
The melting point of the first is higher: 255 to 257 °C for the first, 238 to 240 °C for the second.

Compared with CC(NC(=O)c1cc(F)ccc1N)c1ccc(C#N)cc1 (stereo not drawn), NC(c1ccncc1)c1ccc(F)cc1 (stereo not drawn) is lower in melting point: 139 to 141 °C for the first, 63 to 65 °C for the second.

First: Oc1cccc(Oc2ccncn2)c1
Second: Oc1ncncc1Br
The melting point of the first is lower: 102 to 104 °C for the first, 193 to 195 °C for the second.

Compared with O=C(O)c1cc(Cl)ccc1NS(=O)(=O)c1ccccc1, O=C(O)c1ccc(N2C(=O)CSC2=S)cc1 is higher in melting point: 184 to 186 °C for the first, 281 to 283 °C for the second.

First: Cc1cc2ncn(CC3CO3)c2cc1C (stereo not drawn)
Second: Cn1c(C2CC2)nc2cc(N)ccc21
The melting point of the first is higher: 119 to 121 °C for the first, 99 to 101 °C for the second.

First: CC1(C)C(=O)NC(=O)N1CC(N)=O
Second: CC1(C)NC(=O)N(CC(=O)O)C1=O
The melting point of the first is lower: 154 to 156 °C for the first, 167 to 169 °C for the second.

Compared with COc1cc(C=O)ccc1OCc1ccc(F)cc1, COc1cc2c(c(OC)c1)C(=O)C(=O)N2 is higher in melting point: 77 to 81 °C for the first, 289 to 291 °C for the second.

First: O=C1C=C(Br)C(=O)N1
Second: CC(C)Cn1c(=O)n(C)c(=O)c2cc(C(=O)O)cnc21
The melting point of the first is lower: 151 to 153 °C for the first, 219 to 221 °C for the second.

Compared with NCCCCc1cn[nH]c1, COC(=O)CNc1ccncc1[N+](=O)[O-] is higher in melting point: 72 to 74 °C for the first, 104 to 106 °C for the second.

First: O=C(O)CCNC(=O)c1ccncc1
Second: COc1cc(OC)cc(C(=O)NCC(=O)O)c1
The melting point of the first is higher: 239 to 241 °C for the first, 91 to 93 °C for the second.

With OCc1cn2cc(Cl)cc(Cl)c2n1 the melting point was 177 to 179 °C.
